Test results published in patent US10124085B2, “Antimicrobial and antiviral hygienic products” (priority 2014, dated 2018).

Tests used:
Fusarium oxysporum = assay: Modified disc diffusion method; assay type: cell-based; design: key: +sign indicates that the boron compounds had antimicrobial activity.; −sign indicates that there is no antimicrobial activity; details: disc immersed in pulverized boron compound; Nystatin 30 μg/disc; 25±1° C., 72 hours
[1] = system: all of the tested microorganisms; assay type: cell-based
Botrytis cinerea [2] = assay: Modified disc diffusion method; assay type: cell-based; design: key: +sign indicates that the boron compounds had antimicrobial activity.; −sign indicates that there is no antimicrobial activity; details: disc immersed in pulverized boron compound; Nystatin 30 μg/disc; 25±1° C., 72 hours
Escherichia coli = assay: Modified disc diffusion method; assay type: cell-based; design: key: +sign indicates that the boron compounds had antimicrobial activity.; −sign indicates that there is no antimicrobial activity; details: disc immersed in pulverized boron compound; Ofloxacin 10 μg/disc; 36±1° C., 24 hours
Staphylococcus aureus = assay: Modified disc diffusion method; assay type: cell-based; design: key: +sign indicates that the boron compounds had antimicrobial activity.; −sign indicates that there is no antimicrobial activity; details: disc immersed in pulverized boron compound; Ofloxacin 10 μg/disc; 36±1° C., 24 hours
Candida albicans = assay: Modified disc diffusion method; assay type: cell-based; design: key: +sign indicates that the boron compounds had antimicrobial activity.; −sign indicates that there is no antimicrobial activity; details: disc immersed in pulverized boron compound; Nystatin 30 μg/disc; 36±1° C., 48 hours
Aspergillus niger = assay: Modified disc diffusion method; assay type: cell-based; design: key: +sign indicates that the boron compounds had antimicrobial activity.; −sign indicates that there is no antimicrobial activity; details: disc immersed in pulverized boron compound; Nystatin 30 μg/disc; 25±1° C., 72 hours
Pseudomonas aeruginosa = assay: Modified disc diffusion method; assay type: cell-based; design: key: +sign indicates that the boron compounds had antimicrobial activity.; −sign indicates that there is no antimicrobial activity; details: disc immersed in pulverized boron compound; Ofloxacin 10 μg/disc; 36±1° C., 24 hours
Candida glabrata = assay: Modified disc diffusion method; assay type: cell-based; design: key: +sign indicates that the boron compounds had antimicrobial activity.; −sign indicates that there is no antimicrobial activity; details: disc immersed in pulverized boron compound; Nystatin 30 μg/disc; 36±1° C., 48 hours
Penicillium expansum = assay: Modified disc diffusion method; assay type: cell-based; design: key: +sign indicates that the boron compounds had antimicrobial activity.; −sign indicates that there is no antimicrobial activity; details: disc immersed in pulverized boron compound; Nystatin 30 μg/disc; 25±1° C., 72 hours
Penicillium vinaceum = assay: Modified disc diffusion method; assay type: cell-based; design: key: +sign indicates that the boron compounds had antimicrobial activity.; −sign indicates that there is no antimicrobial activity; details: disc immersed in pulverized boron compound; Nystatin 30 μg/disc; 25±1° C., 72 hours
[3] = system: Human adenovirus type 5 Adenoid 75 strain; assay: Antiviral activity test in HEp-2 cell culture (TCID50, Spearman-Karber); assay type: cell-based; details: for Reduction ratio in virus titration / Virus titration with Chlorhexidine gluconate: 0.1%, 20° C.; for Virus titration with Chlorhexidine gluconate: reference virus 5.5
poliovirus = details: 0.02% chlorhexidine gluconate; 90-minute exposure at room temperature; cited from earlier work
[4] = system: Poliovirus type 1 Chat strain; assay type: cell-based
adenovirus = details: 0.02% chlorhexidine gluconate; 90-minute exposure at room temperature; cited from earlier work
[5] = system: HEp-2 cells (ATCC CCL-23)
[6] = system: Human Herpes simplex virus type 1 (HSV-1) MacIntyre strain; assay: Antiviral activity test in Vero cell culture (TCID50, Spearman-Karber); assay type: cell-based; details: for Reduction ratio in virus titration / Virus titration with Chlorhexidine gluconate: 0.1%, 20° C.; for Virus titration with Chlorhexidine gluconate: reference virus 7.3
Herpesvirus hominis = details: 0.02% chlorhexidine gluconate; 90-minute exposure at room temperature; cited from earlier work
enteric bacteria = details: cited from earlier work
[7] = system: various bacterial strains; details: 10-minute exposure; 0.02% chlorhexidine solution; cited from earlier work
Botrytis cinerea [8] = details: 1% concentration; cited from earlier work
Penicillium expansium = details: cited from earlier work
Propionibacterium acnes = details: cited from earlier work
micrococci = details: cited from earlier work
streptococci = details: cited from earlier work
[9] = room temperature (20° C.), clean and polluted media, 1 and 60 minute application periods
[10] = used directly without being diluted, room temperature (20° C.), 1 and 60 minute application periods

O.O.O.O.O.[Na+].[Na+].[O-]B1OB2OB([O-])OB(O1)O2 [BP, Borax pentahydrate]
Antimicrobial activity (inhibition zone) (Fusarium oxysporum): + | concentration giving the most effective antimicrobial (antifungal, anticandidal and antibacterial) results [1]: 5.5 mg/cm^2 | Antimicrobial activity (inhibition zone) (Botrytis cinerea [2]): + | Antimicrobial activity (inhibition zone) (Escherichia coli): + | Antimicrobial activity (inhibition zone) (Staphylococcus aureus): + | Antimicrobial activity (inhibition zone) (Candida albicans): + | Antimicrobial activity (inhibition zone) (Aspergillus niger): + | Antimicrobial activity (inhibition zone) (Pseudomonas aeruginosa): + | Antimicrobial activity (inhibition zone) (Candida glabrata): + | Antimicrobial activity (inhibition zone) (Penicillium expansum): + | Antimicrobial activity (inhibition zone) (Penicillium vinaceum): +

N=C(NCCCCCCNC(=N)NC(=N)Nc1ccc(Cl)cc1)NC(=N)Nc1ccc(Cl)cc1.O=C(O)[C@H](O)[C@@H](O)[C@H](O)[C@H](O)CO.O=C(O)[C@H](O)[C@@H](O)[C@H](O)[C@H](O)CO [Chlorhexidine gluconate]
Reduction ratio in virus titration ([3]; 1 minute, Clean medium): 4.0 Logarithmic TCID50 | Virus titration with Chlorhexidine gluconate ([3]; 1 minute, Clean medium): 1.5 Logarithmic TCID50 | Reduction ratio in virus titration ([3]; 1 minute, Polluted medium): 4.0 Logarithmic TCID50 | Virus titration with Chlorhexidine gluconate ([3]; 1 minute, Polluted medium): 1.5 Logarithmic TCID50 | Reduction ratio in virus titration ([3]; 60 minutes, Clean medium): 4.5 Logarithmic TCID50 | Virus titration with Chlorhexidine gluconate ([3]; 60 minutes, Clean medium): 1.0 Logarithmic TCID50 | Reduction ratio in virus titration ([3]; 60 minutes, Polluted medium): 4.0 Logarithmic TCID50 | Virus titration with Chlorhexidine gluconate ([3]; 60 minutes, Polluted medium): 1.5 Logarithmic TCID50 | reduction in virus titration [3, 9]: at least 4 log | active against virus [3, 10]: 99.9% | activity against virus (poliovirus): ineffective | reduction in virus titration [4]: at least 4 log | Reduction ratio in virus titration ([4]; 0.1%, 20° C.): 4.2 Logarithmic TCID50 | Virus titration with Chlorhexidine gluconate ([4]; 0.1%, 20° C.): 1.3 Logarithmic TCID50 | activity against virus (adenovirus): ineffective | cytopathic effect on the cells in the cell culture [5]: showed cytopathic effect | lowest ratio which does not show cytopathic effect [5]: 0.1% | Reduction ratio in virus titration ([6]; 1 minute, Clean medium): 4 Logarithmic TCID50 | Virus titration with Chlorhexidine gluconate ([6]; 1 minute, Clean medium): 2.3 Logarithmic TCID50 | Reduction ratio in virus titration ([6]; 1 minute, Polluted medium): 4 Logarithmic TCID50 | Virus titration with Chlorhexidine gluconate ([6]; 1 minute, Polluted medium): 2.3 Logarithmic TCID50 | Reduction ratio in virus titration ([6]; 60 minutes, Clean medium): 4 Logarithmic TCID50 | Virus titration with Chlorhexidine gluconate ([6]; 60 minutes, Clean medium): 2.3 Logarithmic TCID50 | Reduction ratio in virus titration ([6]; 60 minutes, Polluted medium): 4 Logarithmic TCID50 | Virus titration with Chlorhexidine gluconate ([6]; 60 minutes, Polluted medium): 2.3 Logarithmic TCID50 | reduction in virus titration [6, 9]: at least 4 log | active against virus [6, 10]: 99.9% | reduction of virus titration (Herpesvirus hominis): more than 99%

C[C@@H]1[C@H](O)[C@@H](C)/C=C/C=C/CC/C=C/C=C/C=C/C=C/C(O[C@H]2O[C@H](C)[C@@H](O)[C@H](N)[C@@H]2O)CC2O[C@](O)(CC(O)C(O)CCC(O)CC(O)CC(O)CC(=O)O[C@H]1C)CC(O)C2C(=O)O (stereo partly drawn) [Nystatin]
Antimicrobial activity (inhibition zone) (Fusarium oxysporum): + | Antimicrobial activity (inhibition zone) (Botrytis cinerea [2]): + | Antimicrobial activity (inhibition zone) (Candida albicans): + | Antimicrobial activity (inhibition zone) (Aspergillus niger): + | Antimicrobial activity (inhibition zone) (Candida glabrata): + | Antimicrobial activity (inhibition zone) (Penicillium expansum): + | Antimicrobial activity (inhibition zone) (Penicillium vinaceum): +

CC1COc2c(N3CCN(C)CC3)c(F)cc3c(=O)c(C(=O)O)cn1c23 (stereo not drawn) [Ofloxacin]
Antimicrobial activity (inhibition zone) (Escherichia coli): + | Antimicrobial activity (inhibition zone) (Staphylococcus aureus): + | Antimicrobial activity (inhibition zone) (Pseudomonas aeruginosa): +

O.O.O.O.[Na+].[O-]B1OO1 [SPT, Sodium perborate tetrahydrate]
Antimicrobial activity (inhibition zone) (Fusarium oxysporum): + | concentration giving the most effective antimicrobial (antifungal, anticandidal and antibacterial) results [1]: 5.5 mg/cm^2 | Antimicrobial activity (inhibition zone) (Botrytis cinerea [2]): + | Antimicrobial activity (inhibition zone) (Escherichia coli): + | Antimicrobial activity (inhibition zone) (Staphylococcus aureus): + | Antimicrobial activity (inhibition zone) (Candida albicans): + | Antimicrobial activity (inhibition zone) (Aspergillus niger): + | Antimicrobial activity (inhibition zone) (Pseudomonas aeruginosa): + | Antimicrobial activity (inhibition zone) (Candida glabrata): + | Antimicrobial activity (inhibition zone) (Penicillium expansum): + | Antimicrobial activity (inhibition zone) (Penicillium vinaceum): +

OB(O)O [boric acid]
antibacterial activity (enteric bacteria): has antibacterial activity

[H]/N=C(\N/C(=N/[H])NCCCCCCNC(=N)NC(=N)Nc1ccc(Cl)cc1)Nc1ccc(Cl)cc1 [chlorhexidine]
inhibition of microorganisms [7]: 99.99%

[K+].[K+].[O-]B1OB2OB([O-])OB(O1)O2 [potassium tetraborate]
control of mold causing disease on the grapes (Botrytis cinerea [8]): could control | minimum concentration preventing micelle growth (Penicillium expansium): 0.1%

Oc1cc(Cl)ccc1Oc1ccc(Cl)cc1Cl [triclosan]
effectiveness relative to hexachlorophene (Propionibacterium acnes): less effective | effectiveness relative to hexachlorophene (micrococci): less effective | effectiveness relative to hexachlorophene (streptococci): less effective

Sodium Borate [SB]
Antimicrobial activity (inhibition zone) (Fusarium oxysporum): + | concentration giving the most effective antimicrobial (antifungal, anticandidal and antibacterial) results [1]: 4 mg/cm^2 | Antimicrobial activity (inhibition zone) (Botrytis cinerea [2]): + | Antimicrobial activity (inhibition zone) (Escherichia coli): + | Antimicrobial activity (inhibition zone) (Staphylococcus aureus): + | Antimicrobial activity (inhibition zone) (Candida albicans): + | Antimicrobial activity (inhibition zone) (Aspergillus niger): + | Antimicrobial activity (inhibition zone) (Pseudomonas aeruginosa): + | Antimicrobial activity (inhibition zone) (Candida glabrata): + | Antimicrobial activity (inhibition zone) (Penicillium expansum): + | Antimicrobial activity (inhibition zone) (Penicillium vinaceum): +
